The test system of one test is PC-3. The experiment in a line: In vitro cytological inhibitory activity (XTT). The following applies: Homo sapiens, 72 hrs. It counts as cell-based. How it is done:
PC-3: Human prostatic carcinoma cell line;
(§1) 1. Preparation of agents and compounds:
(§2) • 1.1 Preparation of phosphoric acid buffering solution (PBS): 8 g NaCl, 0.2 g KCl, 1.44 g Na2HPO4 and 0.24 g KH2PO4 were weighed and added to 800 mL ultrapure water. The mixture was adjusted to pH=7.4, and ultrapure water was added to the metered volume of IL. Then the autoclaving was conducted for 20 mins. • 1.2 Preparation of XTT detection working solution: 100 mg (2,3-Bis-(2-methoxy-4-nitro-5-sulfophenyl)-2H-tetrazolium-5-carboxanilide); 2,3-bis(2-methoxy-4-nitro-5-sulfophenyl)-5-[(phenylamino)carbonyl]-2H-tetrazolium hydroxide (XTT) powder was weighed, and dissolved under protection from light 300 mL of phenol red-free and serum-free RPMI1640 culture, which had been warmed up to 50° C. The resulting mixture was filtered, packaged and used immediately or in one week. The complete process was conducted under protection from light. • 1.3 Preparation of the test compound • Preparation of the stock solution of the test compound: The test compound powder was dissolved in DMSO in a concentration of 10 mM. • Preparation of the gradiently diluted solution of the test compound: 10 mM of the stock solution of the test compound was successively and gradiently diluted with DMSO by 4 folds for 10 concentrations. […]
For orientation: Tetrazolium assays rely on reduction of a dye to a coloured formazan, in cell work by metabolically active cells.

A further test concerns SKOV-3. The experiment in a line: In vitro cytological inhibitory activity (XTT). The test is classed as cell-based. The following applies: Homo sapiens, SK-OV-3, 72 hrs. How it is done: SKOV-3: Human ovarian cancer cell line;
as §1, §2

The next test addresses Endothelin ETA (Homo sapiens (Human), UniProt P25101). The experiment in a line: Radioligand binding assay No. 224010. The following applies: test substance 10 μM, read-out: Inhibitory rate (%), Endothelin ETA.
For the next test, the target named is Calcium Channel N-Type (Rattus norvegicus (Rat), UniProt Q02294). The experiment in a line: Radioligand binding assay No. 216000. The following applies: test substance 10 μM, read-out: Inhibitory rate (%), Calcium Channel N-Type.
Calcium Channel N-Type, sequence (Q02294 whole entry): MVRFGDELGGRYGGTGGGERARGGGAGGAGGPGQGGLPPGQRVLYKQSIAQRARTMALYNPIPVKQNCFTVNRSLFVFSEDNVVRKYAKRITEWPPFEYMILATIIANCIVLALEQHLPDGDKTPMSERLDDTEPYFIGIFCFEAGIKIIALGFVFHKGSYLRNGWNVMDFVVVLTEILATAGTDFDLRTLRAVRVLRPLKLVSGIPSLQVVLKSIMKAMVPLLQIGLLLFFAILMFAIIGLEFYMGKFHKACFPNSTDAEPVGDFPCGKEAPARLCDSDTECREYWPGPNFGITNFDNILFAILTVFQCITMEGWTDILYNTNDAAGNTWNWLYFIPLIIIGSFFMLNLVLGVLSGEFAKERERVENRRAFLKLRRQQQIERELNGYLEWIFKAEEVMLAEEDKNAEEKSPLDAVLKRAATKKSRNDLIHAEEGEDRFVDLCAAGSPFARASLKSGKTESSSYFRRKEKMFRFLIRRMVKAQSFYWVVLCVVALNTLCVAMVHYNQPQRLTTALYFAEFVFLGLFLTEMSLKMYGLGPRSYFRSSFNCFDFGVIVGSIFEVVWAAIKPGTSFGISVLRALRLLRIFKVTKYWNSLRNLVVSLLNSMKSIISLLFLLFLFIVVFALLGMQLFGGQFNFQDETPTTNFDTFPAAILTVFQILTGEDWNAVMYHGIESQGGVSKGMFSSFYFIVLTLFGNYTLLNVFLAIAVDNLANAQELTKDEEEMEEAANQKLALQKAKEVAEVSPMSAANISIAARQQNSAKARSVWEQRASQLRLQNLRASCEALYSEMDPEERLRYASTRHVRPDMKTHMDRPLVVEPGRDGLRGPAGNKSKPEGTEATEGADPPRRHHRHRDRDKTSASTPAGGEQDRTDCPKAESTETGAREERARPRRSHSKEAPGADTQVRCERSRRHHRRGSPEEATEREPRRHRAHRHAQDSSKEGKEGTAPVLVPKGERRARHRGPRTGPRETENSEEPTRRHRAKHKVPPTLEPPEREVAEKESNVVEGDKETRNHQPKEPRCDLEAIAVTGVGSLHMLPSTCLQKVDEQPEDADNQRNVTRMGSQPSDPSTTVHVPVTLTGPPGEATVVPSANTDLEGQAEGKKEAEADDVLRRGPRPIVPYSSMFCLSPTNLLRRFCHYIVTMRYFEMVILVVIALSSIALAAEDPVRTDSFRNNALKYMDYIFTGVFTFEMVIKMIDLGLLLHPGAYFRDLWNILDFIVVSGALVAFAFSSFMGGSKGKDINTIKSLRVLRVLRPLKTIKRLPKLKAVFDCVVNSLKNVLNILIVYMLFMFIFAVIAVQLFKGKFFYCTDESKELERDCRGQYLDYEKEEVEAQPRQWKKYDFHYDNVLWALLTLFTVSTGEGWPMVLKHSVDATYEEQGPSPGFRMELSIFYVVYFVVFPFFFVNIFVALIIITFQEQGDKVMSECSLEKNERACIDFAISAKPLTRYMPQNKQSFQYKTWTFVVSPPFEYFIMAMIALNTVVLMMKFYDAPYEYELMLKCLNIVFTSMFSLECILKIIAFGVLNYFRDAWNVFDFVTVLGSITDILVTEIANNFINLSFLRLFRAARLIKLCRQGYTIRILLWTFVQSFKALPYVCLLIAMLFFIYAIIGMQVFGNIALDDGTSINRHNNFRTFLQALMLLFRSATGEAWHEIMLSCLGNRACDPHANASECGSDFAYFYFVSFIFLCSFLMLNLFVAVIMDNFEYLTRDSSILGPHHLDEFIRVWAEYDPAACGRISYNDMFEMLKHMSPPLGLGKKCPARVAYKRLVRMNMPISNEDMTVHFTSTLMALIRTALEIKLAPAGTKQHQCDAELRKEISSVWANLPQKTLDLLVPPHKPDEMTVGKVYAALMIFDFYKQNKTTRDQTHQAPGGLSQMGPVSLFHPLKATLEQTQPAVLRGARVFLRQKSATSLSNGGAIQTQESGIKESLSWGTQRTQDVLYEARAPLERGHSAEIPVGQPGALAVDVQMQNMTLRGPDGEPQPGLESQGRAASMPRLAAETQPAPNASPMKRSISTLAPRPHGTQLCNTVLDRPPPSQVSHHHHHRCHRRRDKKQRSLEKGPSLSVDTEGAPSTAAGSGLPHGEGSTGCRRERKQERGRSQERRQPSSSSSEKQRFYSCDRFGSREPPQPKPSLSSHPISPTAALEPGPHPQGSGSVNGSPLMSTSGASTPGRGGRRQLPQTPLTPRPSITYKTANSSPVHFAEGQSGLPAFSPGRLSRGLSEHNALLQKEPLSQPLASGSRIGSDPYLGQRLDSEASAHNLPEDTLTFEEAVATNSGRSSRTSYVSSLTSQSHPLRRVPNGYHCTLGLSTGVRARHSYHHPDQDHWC
The target of a further test is Opiate δ1 (OP1, DOP) (Homo sapiens (Human), UniProt P41143). The test can be described thus: Radioligand binding assay No. 260130. The following applies: test substance 10 μM, read-out: Inhibitory rate (%), Opiate δ1 (OP1, DOP).
Opiate δ1 (OP1, DOP), sequence (P41143 whole entry): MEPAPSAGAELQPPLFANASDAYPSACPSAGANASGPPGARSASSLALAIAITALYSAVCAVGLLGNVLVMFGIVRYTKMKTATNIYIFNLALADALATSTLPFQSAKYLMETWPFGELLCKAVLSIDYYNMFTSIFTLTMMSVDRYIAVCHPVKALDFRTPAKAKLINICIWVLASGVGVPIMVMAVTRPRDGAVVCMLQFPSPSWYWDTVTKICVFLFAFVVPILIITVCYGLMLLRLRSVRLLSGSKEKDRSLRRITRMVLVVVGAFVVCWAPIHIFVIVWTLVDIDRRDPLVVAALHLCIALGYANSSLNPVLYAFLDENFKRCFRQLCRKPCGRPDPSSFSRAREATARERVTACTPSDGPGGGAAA
The next test concerns Thyroid Hormone. The test can be described thus: Radioligand binding assay No. 285900. The following applies: test substance 10 μM; rat.
The next test has as its target Adenosine A1 (Homo sapiens (Human), UniProt P30542). The experiment in a line: Radioligand binding assay No. 200510. Conditions: test substance 10 μM, read-out: Inhibitory rate (%), Adenosine A1.
Test [1] addresses Transporter, Serotonin (5-Hydroxytryptamine) (SERT) (Homo sapiens (Human), UniProt P31645). The test can be described thus: Radioligand binding assay No. 274030. Conditions: test substance 10 μM, read-out: Inhibitory rate (%), Transporter, Serotonin (5-Hydroxytryptamine) (SERT).
The subject of a further test is Purinergic P2X. The experiment in a line: Radioligand binding assay No. 268700. The following applies: test substance 10 μM; rabbit.
For the next test, the system named is ImidazolineI2, Central. The test can be described thus: Radioligand binding assay No. 241000. Conditions: test substance 10 μM; rat.
The next test addresses Sigmaσ1 (Homo sapiens (Human), UniProt Q99720). The experiment in a line: Radioligand binding assay No. 278110. The following applies: test substance 10 μM, read-out: Inhibitory rate (%), Sigmaσ1.
Test [2] has as its target Serotonin (5-Hydroxytryptamine) 5-HT3 (Homo sapiens (Human), UniProt P46098). The experiment in a line: Radioligand binding assay No. 271910. Conditions: test substance 10 μM, read-out: Inhibitory rate (%), Serotonin (5-Hydroxytryptamine) 5-HT3.
The target of test [3] is Serotonin (5-Hydroxytryptamine) 5-HT1A (Homo sapiens (Human), UniProt P08908). The experiment in a line: Radioligand binding assay No. 271110. The following applies: test substance 10 μM, read-out: Inhibitory rate (%), Serotonin (5-Hydroxytryptamine) 5-HT1A.
For test [4], the target named is Platelet Activating Factor (PAF) (Homo sapiens (Human), UniProt P25105). The experiment in a line: Radioligand binding assay No. 265010. Conditions: test substance 10 μM, read-out: Inhibitory rate (%), Platelet Activating Factor (PAF).
Another test addresses Adrenergic β2 (Homo sapiens (Human), UniProt P07550). The experiment in a line: Radioligand binding assay No. 204110. The following applies: test substance 10 μM, read-out: Inhibitory rate (%), Adrenergic β2.
Test [5] deals with Glutamate, NMDA, Phencyclidine. The test can be described thus: Radioligand binding assay No. 233000. Conditions: test substance 10 μM; rat.

Adrenergic β2, sequence (P07550 whole entry): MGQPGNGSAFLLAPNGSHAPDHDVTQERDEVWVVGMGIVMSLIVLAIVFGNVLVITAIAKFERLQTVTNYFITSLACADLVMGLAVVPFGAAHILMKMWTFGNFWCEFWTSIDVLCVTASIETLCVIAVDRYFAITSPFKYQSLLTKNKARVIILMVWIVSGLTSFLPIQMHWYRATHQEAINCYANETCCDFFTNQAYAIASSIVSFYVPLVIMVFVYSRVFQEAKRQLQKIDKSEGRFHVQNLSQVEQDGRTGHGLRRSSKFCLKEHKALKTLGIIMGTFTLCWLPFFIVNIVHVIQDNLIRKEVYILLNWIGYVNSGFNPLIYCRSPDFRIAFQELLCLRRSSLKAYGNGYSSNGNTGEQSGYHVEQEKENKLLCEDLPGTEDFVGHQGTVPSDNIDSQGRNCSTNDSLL
Adenosine A1, sequence (P30542 whole entry): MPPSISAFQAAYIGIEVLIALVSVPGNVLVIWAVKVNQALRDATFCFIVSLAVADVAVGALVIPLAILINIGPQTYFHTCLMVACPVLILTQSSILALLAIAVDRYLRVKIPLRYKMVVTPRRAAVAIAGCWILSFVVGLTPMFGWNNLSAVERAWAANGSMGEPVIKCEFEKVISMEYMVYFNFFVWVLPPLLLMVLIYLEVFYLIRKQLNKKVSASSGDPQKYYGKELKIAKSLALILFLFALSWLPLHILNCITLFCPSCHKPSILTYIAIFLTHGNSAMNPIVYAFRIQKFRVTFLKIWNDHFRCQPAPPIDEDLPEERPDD
Transporter, Serotonin (5-Hydroxytryptamine) (SERT), sequence (P31645 whole entry): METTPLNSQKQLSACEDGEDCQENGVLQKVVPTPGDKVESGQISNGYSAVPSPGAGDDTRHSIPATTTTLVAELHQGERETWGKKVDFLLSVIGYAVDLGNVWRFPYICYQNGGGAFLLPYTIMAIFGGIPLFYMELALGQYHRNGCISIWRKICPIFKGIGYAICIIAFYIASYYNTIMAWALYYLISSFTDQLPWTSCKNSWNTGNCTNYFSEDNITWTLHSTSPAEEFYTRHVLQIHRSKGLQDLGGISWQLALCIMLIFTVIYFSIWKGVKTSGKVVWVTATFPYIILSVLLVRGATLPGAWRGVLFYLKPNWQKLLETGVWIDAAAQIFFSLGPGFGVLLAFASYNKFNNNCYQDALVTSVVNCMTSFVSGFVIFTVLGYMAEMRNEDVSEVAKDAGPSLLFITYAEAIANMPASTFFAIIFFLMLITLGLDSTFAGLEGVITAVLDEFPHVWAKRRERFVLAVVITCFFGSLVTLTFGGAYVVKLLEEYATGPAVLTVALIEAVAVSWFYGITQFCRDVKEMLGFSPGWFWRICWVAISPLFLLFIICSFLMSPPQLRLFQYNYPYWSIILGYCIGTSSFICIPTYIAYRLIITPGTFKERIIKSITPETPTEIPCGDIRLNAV
Serotonin (5-Hydroxytryptamine) 5-HT3, sequence (P46098 24-478): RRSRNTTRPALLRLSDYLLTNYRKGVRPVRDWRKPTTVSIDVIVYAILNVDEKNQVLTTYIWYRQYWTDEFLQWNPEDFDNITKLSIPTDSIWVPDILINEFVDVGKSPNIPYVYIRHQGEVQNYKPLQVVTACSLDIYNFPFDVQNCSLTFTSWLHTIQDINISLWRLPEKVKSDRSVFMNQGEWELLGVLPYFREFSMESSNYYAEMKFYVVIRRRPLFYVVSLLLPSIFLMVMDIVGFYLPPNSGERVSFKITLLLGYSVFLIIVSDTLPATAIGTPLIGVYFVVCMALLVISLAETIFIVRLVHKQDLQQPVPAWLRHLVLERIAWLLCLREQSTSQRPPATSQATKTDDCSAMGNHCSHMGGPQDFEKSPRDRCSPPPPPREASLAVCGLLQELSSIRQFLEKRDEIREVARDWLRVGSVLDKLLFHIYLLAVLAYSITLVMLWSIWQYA
Endothelin ETA, sequence (P25101 21-427): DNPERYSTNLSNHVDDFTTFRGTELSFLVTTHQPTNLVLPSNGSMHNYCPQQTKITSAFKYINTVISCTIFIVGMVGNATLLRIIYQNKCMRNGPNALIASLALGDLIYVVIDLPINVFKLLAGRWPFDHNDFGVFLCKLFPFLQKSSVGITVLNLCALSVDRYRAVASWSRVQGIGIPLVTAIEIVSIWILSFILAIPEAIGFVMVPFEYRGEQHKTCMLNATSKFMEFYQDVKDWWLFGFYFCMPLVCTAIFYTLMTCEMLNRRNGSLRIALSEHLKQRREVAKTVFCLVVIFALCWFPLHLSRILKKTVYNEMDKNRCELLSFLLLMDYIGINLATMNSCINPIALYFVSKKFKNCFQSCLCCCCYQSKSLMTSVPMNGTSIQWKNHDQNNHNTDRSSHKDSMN

As a reminder, the IC50 is the concentration that inhibits the measured activity by half. A higher IC50 goes with lower potency. Consider `O=c1[nH]c(=O)n(-c2cccc(C(F)(F)F)c2)c2c1cnc1ccc(-c3cnc4[nH]ccc4c3)nc12` [Compound 30, 9-(1H-pyrrolo[2,3-b]pyridin-5-yl)-1-(3-(trifluoromethyl)phenyl)pyrimido[5,4-c][1,5]naphthyridine-2,4(1H,3H)-dione], for which the IC50 in the test on PC-3 came to 25.6 nM; in the test with SKOV-3 it was 57.2 nM.
Consider `Nc1ccc(-c2ccc3ncc4c(=O)[nH]c(=O)n(-c5cccc(C(F)(F)F)c5)c4c3n2)cn1` [Compound 5, 9-(6-aminopyridin-3-yl)-1-(3-(trifluoromethyl)phenyl)pyrimido[5,4-c][1,5]naphthyridine-2,4(1H,3H)-dione], for which the inhibition at 10 µM on Endothelin ETA was 3%; on Calcium Channel N-Type, -22%; at Opiate δ1 (OP1, DOP), 4%; on Adenosine A1, 20%; in test [1] it was 6%; on Sigmaσ1, 13%. In addition, the inhibition at 10 µM is 8% in [2], 25% in [3], 20% in test [4] and 17% on Adrenergic β2. Also, the “Inhibitory rate (%), Thyroid Hormone” value with Thyroid Hormone turned out to be 9%. For the same compound, in the test with Purinergic P2X, the “Inhibitory rate (%), Purinergic P2X” value is listed as 9%. In the test on ImidazolineI2, Central, the “Inhibitory rate (%), ImidazolineI2, Central” value came out at 0%. Further, in test [5], the “Inhibitory rate (%), Glutamate, NMDA, Phencyclidine” value is recorded as 8%.

The values above are taken from patent publication US9365572B2, “PI3K and/or mTOR inhibitor” (XUANZHU PHARMA CO., LTD., priority 2012, dated 2016).
